According to ChEMBL document CHEMBL1671854, “ramR mutations involved in efflux-mediated multidrug resistance in Salmonella enterica serovar Typhimurium” (2008):

Legend:
Format in all cases: functional, Salmonella enterica subsp. enterica serovar Typhimurium
Salmonella typhimurium [1] = assay: Antimicrobial activity against multidrug-resistant Salmonella enterica serovar Typhimurium 902SA92 harboring GyrA S83A and D87N, GyrB S464F and ParC S80I mutant genes by agar doubling dilution method
Salmonella typhimurium [2] = assay: Antimicrobial activity against multidrug-resistant Salmonella enterica serovar Typhimurium 902SA92 harboring plasmid encoded RamR gene, GyrA S83A and D87N, GyrB S464F and ParC S80I mutant genes by agar doubling dilution method
Salmonella typhimurium [3] = assay: Antimicrobial activity against ramA::kan-deficient Salmonella enterica serovar Typhimurium 902SA92 harboring GyrA S83A and D87N, GyrB S464F and ParC S80I mutant genes by agar doubling dilution method
Salmonella typhimurium [4] = assay: Antimicrobial activity against multidrug-resistant Salmonella enterica serovar Typhimurium 102SA00 harboring GyrA S83A and D87N, GyrB S464F and ParC S80I mutant genes by agar doubling dilution method
Salmonella typhimurium [5] = assay: Antimicrobial activity against multidrug-resistant Salmonella enterica serovar Typhimurium 102SA00 harboring plasmid encoded RamR gene, GyrA S83A and D87N, GyrB S464F and ParC S80I mutant genes by agar doubling dilution method
Salmonella typhimurium [6] = assay: Antimicrobial activity against ramA::kan-deficient Salmonella enterica serovar Typhimurium 102SA00 harboring GyrA S83A and D87N, GyrB S464F and ParC S80I mutant genes by agar doubling dilution method
Salmonella typhimurium [7] = assay: Antimicrobial activity against multidrug-resistant Salmonella enterica serovar Typhimurium BN10055 harboring GyrA S83Y mutant gene by agar doubling dilution method
Salmonella typhimurium [8] = assay: Antimicrobial activity against multidrug-resistant Salmonella enterica serovar Typhimurium BN10055 harboring plasmid encoded RamR gene, GyrA S83Y mutant gene by agar doubling dilution method
Salmonella typhimurium [9] = assay: Antimicrobial activity against ramA::kan-deficient Salmonella enterica serovar Typhimurium BN10055 harboring GyrA S83Y mutant gene by agar doubling dilution method
Salmonella typhimurium [10] = assay: Antimicrobial activity against multidrug-resistant Salmonella enterica serovar Typhimurium 543SA98 harboring GyrA […] mutant gene by agar doubling dilution method
Salmonella typhimurium [11] = assay: Antimicrobial activity against multidrug-resistant Salmonella enterica serovar Typhimurium 543SA98 harboring plasmid encoded RamR gene, GyrA S83Y mutant gene by agar doubling dilution method
Salmonella typhimurium [12] = assay: Antimicrobial activity against ramA::kan-deficient Salmonella enterica serovar Typhimurium 543SA98 harboring GyrA S83Y mutant gene by agar doubling dilution method
Salmonella typhimurium [13] = assay: Antimicrobial activity against multidrug-resistant Salmonella enterica serovar Typhimurium BN9945 by agar doubling dilution method
Salmonella typhimurium [14] = assay: Antimicrobial activity against multidrug-resistant Salmonella enterica serovar Typhimurium BN9945 harboring plasmid encoded RamR gene by agar doubling dilution method
Salmonella typhimurium [15] = assay: Antimicrobial activity against ramA::kan-deficient Salmonella enterica serovar Typhimurium BN9945 by agar doubling dilution method
Salmonella typhimurium [16] = assay: Antimicrobial activity against multidrug-resistant Salmonella enterica serovar Typhimurium BN9181 by agar doubling dilution method
Salmonella typhimurium [17] = assay: Antimicrobial activity against multidrug-resistant Salmonella enterica serovar Typhimurium BN9181 harboring plasmid encoded RamR gene by agar doubling dilution method
Salmonella typhimurium [18] = assay: Antimicrobial activity against ramA::kan-deficient Salmonella enterica serovar Typhimurium BN9181 by agar doubling dilution method
Salmonella typhimurium [19] = assay: Antimicrobial activity against Salmonella enterica serovar Typhimurium S/921495 by agar doubling dilution method
Salmonella typhimurium [20] = assay: Antimicrobial activity against marR::kan-deficient Salmonella enterica serovar Typhimurium S/921495 by agar doubling dilution method
Salmonella typhimurium [21] = assay: Antimicrobial activity against marR-deficient Salmonella enterica serovar Typhimurium S/921495 by agar doubling dilution method
Salmonella typhimurium [22] = assay: Antimicrobial activity against marA::kan-deficient Salmonella enterica serovar Typhimurium S/921495 by agar doubling dilution method
Salmonella typhimurium [23] = assay: Antimicrobial activity against soxR::kan-deficient Salmonella enterica serovar Typhimurium S/921495 by agar doubling dilution method
Salmonella typhimurium [24] = assay: Antimicrobial activity against soxS::kan-deficient Salmonella enterica serovar Typhimurium S/921495 by agar doubling dilution method
Salmonella typhimurium [25] = assay: Antimicrobial activity against Salmonella enterica serovar Typhimurium S/921495 harboring plasmid encoded RamR gene by agar doubling dilution method
Salmonella typhimurium [26] = assay: Antimicrobial activity against ramR-deficient Salmonella enterica serovar Typhimurium S/921495 harboring plasmid encoded RamR gene by agar doubling dilution method
Salmonella typhimurium [27] = assay: Antimicrobial activity against ramA::kan-deficient Salmonella enterica serovar Typhimurium S/921495 by agar doubling dilution method
Salmonella typhimurium [28] = assay: Antimicrobial activity against Salmonella enterica serovar Typhimurium BN18 by agar doubling dilution method
Salmonella typhimurium [29] = assay: Antimicrobial activity against Salmonella enterica serovar Typhimurium BN18 harboring plasmid encoded RamR gene by agar doubling dilution method
Salmonella typhimurium [30] = assay: Antimicrobial activity against ramA::kan-deficient Salmonella enterica serovar Typhimurium BN18 by agar doubling dilution method
Salmonella typhimurium [31] = assay: Antimicrobial activity against Salmonella enterica serovar Typhimurium BN18/21 by agar doubling dilution method
Salmonella typhimurium [32] = assay: Antimicrobial activity against Salmonella enterica serovar Typhimurium BN18/21 harboring plasmid encoded RamR gene by agar doubling dilution method
Salmonella typhimurium [33] = assay: Antimicrobial activity against ramA::kan-deficient Salmonella enterica serovar Typhimurium BN18/21 by agar doubling dilution method
Salmonella typhimurium [34] = assay: Antimicrobial activity against Salmonella enterica serovar Typhimurium BN18/41 harboring GyrA G81C,acrR mutant genes by agar doubling dilution method
Salmonella typhimurium [35] = assay: Antimicrobial activity against Salmonella enterica serovar Typhimurium BN18/41 harboring plasmid encoded RamR gene, GyrA G81C,acrR mutant genes by agar doubling dilution method
Salmonella typhimurium [36] = assay: Antimicrobial activity against ramA::kan-deficient Salmonella enterica serovar Typhimurium BN18/41 harboring plasmid encoded RamR gene, GyrA G81C,acrR mutant genes by agar doubling dilution method
Salmonella typhimurium [37] = assay: Antimicrobial activity against Salmonella enterica serovar Typhimurium BN18/71 harboring GyrA G81C, acrR mutant genes by agar doubling dilution method
Salmonella typhimurium [38] = assay: Antimicrobial activity against Salmonella enterica serovar Typhimurium BN18/71 harboring plasmid encoded RamR gene, GyrA G81C,acrR mutant genes by agar doubling dilution method
Salmonella typhimurium [39] = assay: Antimicrobial activity against ramA::kan-deficient Salmonella enterica serovar Typhimurium BN18/71 harboring plasmid encoded RamR gene, GyrA G81C,acrR mutant genes by agar doubling dilution method
Salmonella typhimurium [40] = assay: Antimicrobial activity against ramR::kan-deficient Salmonella enterica serovar Typhimurium S/921495 by agar doubling dilution method
Salmonella typhimurium [41] = assay: Antimicrobial activity against ramR-deficient Salmonella enterica serovar Typhimurium S/921495 by agar doubling dilution method

Measured: MIC

CN(C)[C@@H]1C(O)=C(C(N)=O)C(=O)[C@@]2(O)C(O)=C3C(=O)c4c(O)cccc4[C@@](C)(O)[C@H]3C[C@@H]12 [TETRACYCLINE]
16 µg/mL: Salmonella typhimurium [37]
32 µg/mL: Salmonella typhimurium [11] | Salmonella typhimurium [12] | Salmonella typhimurium [14] | Salmonella typhimurium [15] | Salmonella typhimurium [16] | Salmonella typhimurium [17] | Salmonella typhimurium [18]
4 µg/mL: Salmonella typhimurium [31] | Salmonella typhimurium [40] | Salmonella typhimurium [41]
256 µg/mL: Salmonella typhimurium [1] | Salmonella typhimurium [2] | Salmonella typhimurium [3] | Salmonella typhimurium [4] | Salmonella typhimurium [5] | Salmonella typhimurium [6] | Salmonella typhimurium [7] | Salmonella typhimurium [8]
2 µg/mL: Salmonella typhimurium [35] | Salmonella typhimurium [36] | Salmonella typhimurium [38] | Salmonella typhimurium [39]
128 µg/mL: Salmonella typhimurium [10] | Salmonella typhimurium [13]
8 µg/mL: Salmonella typhimurium [34]
64 µg/mL: Salmonella typhimurium [9]
1 µg/mL: all other assays above

CCn1cc(C(=O)O)c(=O)c2ccc(C)nc21 [NALIDIXIC ACID]
64 µg/mL: Salmonella typhimurium [31]
4100 µg/mL: Salmonella typhimurium [2] | Salmonella typhimurium [3] | Salmonella typhimurium [5] | Salmonella typhimurium [6] | Salmonella typhimurium [35] | Salmonella typhimurium [36] | Salmonella typhimurium [38] | Salmonella typhimurium [39]
1020 µg/mL: Salmonella typhimurium [10] | Salmonella typhimurium [13]
> 4100 µg/mL: Salmonella typhimurium [1] | Salmonella typhimurium [4] | Salmonella typhimurium [7] | Salmonella typhimurium [8] | Salmonella typhimurium [34] | Salmonella typhimurium [37]
512 µg/mL: Salmonella typhimurium [9] | Salmonella typhimurium [11] | Salmonella typhimurium [12] | Salmonella typhimurium [14] | Salmonella typhimurium [15]
8 µg/mL: Salmonella typhimurium [32] | Salmonella typhimurium [33]
2 µg/mL: Salmonella typhimurium [20] | Salmonella typhimurium [21] | Salmonella typhimurium [23]
16 µg/mL: Salmonella typhimurium [40] | Salmonella typhimurium [41]
4 µg/mL: all other assays above

CC1CCc2cc(F)cc3c(=O)c(C(=O)O)cn1c23 (stereo not drawn) [FLUMEQUINE]
512 µg/mL: Salmonella typhimurium [2] | Salmonella typhimurium [3] | Salmonella typhimurium [5] | Salmonella typhimurium [6] | Salmonella typhimurium [37]
32 µg/mL: Salmonella typhimurium [10] | Salmonella typhimurium [13]
16 µg/mL: Salmonella typhimurium [9]
8 µg/mL: Salmonella typhimurium [11] | Salmonella typhimurium [12] | Salmonella typhimurium [14] | Salmonella typhimurium [15] | Salmonella typhimurium [31]
2 µg/mL: Salmonella typhimurium [32] | Salmonella typhimurium [33] | Salmonella typhimurium [40] | Salmonella typhimurium [41]
256 µg/mL: Salmonella typhimurium [34] | Salmonella typhimurium [38] | Salmonella typhimurium [39]
64 µg/mL: Salmonella typhimurium [7] | Salmonella typhimurium [8] | Salmonella typhimurium [35] | Salmonella typhimurium [36]
2050 µg/mL: Salmonella typhimurium [1] | Salmonella typhimurium [4]
0.5 µg/mL: all other assays above
